Laboratory results as given in ChEMBL document CHEMBL1130793, “Peptide inhibitors of N-succinyl diaminopimelic acid aminotransferase (DAP-AT): a novel class of antimicrobial compounds” (Bioorg Med Chem Lett, 1998).

What was measured:
[1] = test system: Escherichia coli; test: Regeneration time when tested against inhibition of N-Succinyl Diaminopimelic Acid Aminotransferase from Escherichia coli
[2] = Pharmacokinetic parameter was determined; format: ADME
[3] = Michaelis-Menten constant was determined; format: ADME; conditions: read-out: Km app
[4] = Ratio of the Kcat and Km app was determined; format: ADME
[5] = test system: N-succinyldiaminopimelate aminotransferase (E. coli); test: Compound was tested for inhibition of N-Succinyl Diaminopimelic Acid Aminotransferase from Escherichia coli.; conditions: concentration not given here
[6] = Catalytic constant was determined; format: ADME
[7] = test system: N-succinyldiaminopimelate aminotransferase (E. coli); test: Compound was tested for inhibition of N-Succinyl Diaminopimelic Acid Aminotransferase from Escherichia coli; conditions: concentration not given here
[8] = test system: N-succinyldiaminopimelate aminotransferase (E. coli); test: Compound was tested for 50% inhibition of N-Succinyl Diaminopimelic Acid Aminotransferase (DAP-AT) from E. coli; overall rate of substrate consumption increases at 20 mM

| T1/2 regen [1] [min] | k cat [2] [s⁻¹] | Km [3] [µM] | k cat/Km [4] [M⁻¹ s⁻¹] | inhibition [5] [%] | Compound | other results |
| --- | --- | --- | --- | --- | --- | --- |
| 6.07 | – | – | – | – | CC(=O)N[C@@H](Cc1ccccc1)C(=O)N[C@@H](CCCC(NN)C(=O)O)C(=O)O (stereo partly specified) | – |
| – | < 2.1 | < 1000 | < 2100 | < 0.8 | CC(=O)N[C@@H](Cc1ccccc1)C(=O)N[C@@H](CCCC(=O)C(=O)[O-])C(=O)[O-].[Li+].[Li+] | – |
| – | – | 600 | 273000 | 100 | O=C(O)CCC(=O)N[C@@H](CCCC(=O)C(=O)O)C(=O)O | k cat [6]: 164 s⁻¹ |
| – | 40 | 1570 | 25400 | – | CC(=O)N[C@@H](CC(=O)[O-])C(=O)N[C@@H](CCCC(=O)C(=O)[O-])C(=O)[O-].[Li+].[Li+].[Li+] | inhibition [7]: 9.3%; IC50 [8]: overall rate of substrate consumption increases at 20 mM |
| 78.6 | – | – | – | – | NNC(CCC[C@H](NC(=O)CCC(=O)O)C(=O)O)C(=O)O (stereo partly specified) | – |
| 48.95 | – | – | – | – | CC(=O)N[C@@H](CC(=O)O)C(=O)N[C@@H](CCCC(NN)C(=O)O)C(=O)O (stereo partly specified) | – |
